Results published in ChEMBL document CHEMBL3046113, “Evaluation of fungicides and sterilants for potential application in the management of Fusarium wilt of banana” (Crop Prot, 2007).
Calls of active or inactive are those of the source. No cut-off for these calls is given here.

Assays:
Fusarium odoratissimum [1] = assay: Growth inhibition of Fusarium oxysporum f. sp. cubense race 4 isolate CAV 031 at 10 ug/ml after 7 days; format: functional, organism-based
Fusarium odoratissimum [2] = assay: Growth inhibition of Fusarium oxysporum f. sp. cubense race 4 isolate CAV 031 at 50 ug/ml after 7 days; format: functional, organism-based
Fusarium odoratissimum [3] = assay: Growth inhibition of Fusarium oxysporum f. sp. cubense race 4 isolate CAV 031 at 100 ug/ml after 7 days; format: functional, organism-based
Fusarium odoratissimum [4] = assay: Growth inhibition of Fusarium oxysporum f. sp. cubense race 4 isolate CAV 031 at 1 ug/ml after 7 days; format: functional, organism-based
Fusarium odoratissimum [5] = assay: Antifungal activity against Fusarium oxysporum f. sp. cubense race 4 incubated with 10^2 spore/ml for 5 min measured after 4 days; format: functional, organism-based
Fusarium odoratissimum [6] = assay: Antifungal activity against Fusarium oxysporum f. sp. cubense race 4 incubated with 10^2 spore/ml for 5 to 30 min measured after 4 days; format: functional, organism-based
Fusarium odoratissimum [7] = assay: Antifungal activity against Fusarium oxysporum f. sp. cubense race 4 at 10 times recommended dose incubated with 10^2 spore/ml for 5 min measured after 4 days; format: functional, organism-based
Fusarium odoratissimum [8] = assay: Antifungal activity against Fusarium oxysporum f. sp. cubense race 4 at 0.01 times recommended dose incubated with 10^2 spore/ml for 5 min measured after 4 days; format: functional, organism-based
Fusarium odoratissimum [9] = assay: Antifungal activity against Fusarium oxysporum f. sp. cubense race 4 infected in Cavendish banana plant assessed as reduction in disease severity at 25 ug a.i./ml applied as soil drench treatment immediately after planting measured after 7 weeks in greenhouse conditions; format: functional; set-up: scale not given: the % may be the effect or the level left
Fusarium odoratissimum [10] = assay: Growth inhibition of Fusarium oxysporum f. sp. cubense race 4 isolate CAV 086 at 5 ug/ml after 7 days; format: functional, organism-based
Fusarium odoratissimum [11] = assay: Antifungal activity against Fusarium oxysporum f. sp. cubense race 4 infected in Cavendish banana plant assessed as reduction in disease severity at 25 ug a.i./ml applied as soil drench treatment 1 week after planting measured after 7 weeks in greenhouse conditions; format: functional; set-up: scale not given: the % may be the effect or the level left
Fusarium odoratissimum [12] = assay: Antifungal activity against Fusarium oxysporum f. sp. cubense race 4 infected in Cavendish banana plant assessed as reduction in disease severity at 25 ug a.i./ml applied as root dip treatment for 10 min measured after 7 weeks in greenhouse conditions; format: functional; set-up: scale not given: the % may be the effect or the level left
Fusarium oxysporum [13] = assay: Antifungal activity against Fusarium oxysporum infected tomato plant grown in hydroponic system applied as curative treatment relative to control; format: functional
Fusarium odoratissimum [14] = assay: Growth inhibition of Fusarium oxysporum f. sp. cubense race 4 isolate CAV 086 at 10 ug/ml after 7 days; format: functional, organism-based
Fusarium oxysporum [15] = assay: Antifungal activity against Fusarium oxysporum infected tomato plant grown in hydroponic system applied as preventive treatment relative to control; format: functional
Fusarium odoratissimum [16] = assay: Growth inhibition of Fusarium oxysporum f. sp. cubense race 4 isolate CAV 086 at 50 ug/ml after 7 days; format: functional, organism-based
Fusarium odoratissimum [17] = assay: Growth inhibition of Fusarium oxysporum f. sp. cubense race 4 isolate CAV 086 at 1 ug/ml after 7 days; format: functional, organism-based

CO/C=C(/C(=O)OC)c1ccccc1Oc1cc(Oc2ccccc2C#N)ncn1
growth inhibition (GI) (Fusarium odoratissimum [1]): inactive
growth inhibition (GI) (Fusarium odoratissimum [2]): inactive
growth inhibition (GI) (Fusarium odoratissimum [3]): inactive
growth inhibition (GI) (Fusarium odoratissimum [4]): inactive

CO/N=C(/C(=O)OC)c1ccccc1COc1ccccc1C
growth inhibition (GI) (Fusarium odoratissimum [1]): inactive
growth inhibition (GI) (Fusarium odoratissimum [2]): inactive
growth inhibition (GI) (Fusarium odoratissimum [3]): inactive
growth inhibition (GI) (Fusarium odoratissimum [4]): inactive

OCl
Activity (Fusarium odoratissimum [5]): Dose-dependent effect
Activity (Fusarium odoratissimum [6]): Active
Activity (Fusarium odoratissimum [7]): Active
Activity (Fusarium odoratissimum [8]): inactive

CCCCNC(=O)n1c(NC(=O)OC)nc2ccccc21 [BENOMYL]
growth inhibition (GI) (Fusarium odoratissimum [1]): Active
growth inhibition (GI) (Fusarium odoratissimum [2]): Active
growth inhibition (GI) (Fusarium odoratissimum [3]): Active
Activity (Fusarium odoratissimum [9]): 22.2%
growth inhibition (GI) (Fusarium odoratissimum [10]): Active
Activity (Fusarium odoratissimum [11]): 72.2%
Activity (Fusarium odoratissimum [12]): 66.7%

CCCN(CCOc1c(Cl)cc(Cl)cc1Cl)C(=O)n1ccnc1 [PROCHLORAZ]
Activity (Fusarium oxysporum [13]): 34.4%
Activity (Fusarium odoratissimum [5]): Dose-dependent effect
growth inhibition (GI) (Fusarium odoratissimum [1]): Active
growth inhibition (GI) (Fusarium odoratissimum [14]): Active
growth inhibition (GI) (Fusarium odoratissimum [2]): Active
growth inhibition (GI) (Fusarium odoratissimum [3]): Active
Activity (Fusarium odoratissimum [9]): 38.9%
growth inhibition (GI) (Fusarium odoratissimum [4]): Active
Activity (Fusarium oxysporum [15]): 69.9%
Activity (Fusarium odoratissimum [11]): 50%
growth inhibition (GI) (Fusarium odoratissimum [16]): Active
growth inhibition (GI) (Fusarium odoratissimum [17]): Active
Activity (Fusarium odoratissimum [7]): Active
Activity (Fusarium odoratissimum [12]): 77.8%

CCCC1COC(Cn2cncn2)(c2ccc(Cl)cc2Cl)O1 (stereo not drawn) [PROPICONAZOLE]
growth inhibition (GI) (Fusarium odoratissimum [3]): Active
Activity (Fusarium odoratissimum [9]): 44.4%
growth inhibition (GI) (Fusarium odoratissimum [10]): Active
Activity (Fusarium odoratissimum [11]): 52.8%
Activity (Fusarium odoratissimum [12]): 75%
